Data: BigSolDB 2.1

O=[N+]([O-])O.c1ccc2c(CC3=NCCN3)cccc2c1
solubility (mole fraction) (in 2-methoxyethanol, 278.15 K): 0.0347
solubility (mole fraction) (in 2-methoxyethanol, 283.15 K): 0.04
solubility (mole fraction) (in 2-methoxyethanol, 288.15 K): 0.046
solubility (mole fraction) (in 2-methoxyethanol, 293.15 K): 0.0515
solubility (mole fraction) (in 2-methoxyethanol, 298.15 K): 0.0601
solubility (mole fraction) (in 2-methoxyethanol, 303.15 K): 0.0662
solubility (mole fraction) (in 2-methoxyethanol, 308.15 K): 0.0769
solubility (mole fraction) (in 2-methoxyethanol, 313.15 K): 0.0883
solubility (mole fraction) (in 2-methoxyethanol, 318.15 K): 0.101
solubility (mole fraction) (in 2-methoxyethanol, 323.15 K): 0.115
solubility (mole fraction) (in ethylene glycol, 278.15 K): 0.0168
solubility (mole fraction) (in ethylene glycol, 283.15 K): 0.0212
solubility (mole fraction) (in ethylene glycol, 288.15 K): 0.0257
solubility (mole fraction) (in ethylene glycol, 293.15 K): 0.03
solubility (mole fraction) (in ethylene glycol, 298.15 K): 0.0359
solubility (mole fraction) (in ethylene glycol, 303.15 K): 0.0428
solubility (mole fraction) (in ethylene glycol, 308.15 K): 0.0506
solubility (mole fraction) (in ethylene glycol, 313.15 K): 0.061
solubility (mole fraction) (in ethylene glycol, 318.15 K): 0.0704
solubility (mole fraction) (in ethylene glycol, 323.15 K): 0.0823
solubility (mole fraction) (in isopropanol, 278.15 K): 0.000577
solubility (mole fraction) (in isopropanol, 283.15 K): 0.000763
solubility (mole fraction) (in isopropanol, 288.15 K): 0.00101
solubility (mole fraction) (in isopropanol, 293.15 K): 0.00132
solubility (mole fraction) (in isopropanol, 298.15 K): 0.00161
solubility (mole fraction) (in isopropanol, 303.15 K): 0.00206
solubility (mole fraction) (in isopropanol, 308.15 K): 0.00258
solubility (mole fraction) (in isopropanol, 313.15 K): 0.00327
solubility (mole fraction) (in isopropanol, 318.15 K): 0.00389
solubility (mole fraction) (in isopropanol, 323.15 K): 0.00489
solubility (mole fraction) (in methanol, 278.15 K): 0.0104
solubility (mole fraction) (in methanol, 283.15 K): 0.013
solubility (mole fraction) (in methanol, 288.15 K): 0.0155
solubility (mole fraction) (in methanol, 293.15 K): 0.0193
solubility (mole fraction) (in methanol, 298.15 K): 0.0234
solubility (mole fraction) (in methanol, 303.15 K): 0.029
solubility (mole fraction) (in methanol, 308.15 K): 0.0368
solubility (mole fraction) (in methanol, 313.15 K): 0.0473
solubility (mole fraction) (in methanol, 318.15 K): 0.057
solubility (mole fraction) (in methanol, 323.15 K): 0.0705
